Results taken from US7998903B2, “Glycerol-modified silicone spreading agent and a composition comprising the same” (Shin-Etsu Chemical Co., Ltd., priority 2004, dated 2011).

Key:
[1] = Degree of solubility (miscibility) of the silicone in oil agents; type: physicochemical; set-up: key: “D” means “dispersed”; “I” means “insoluble.”; A silicone with no mark means that it dissolved to form a transparent solution
Procedure: (§1) The present invention will be explained in detail with reference to the following Examples, but not limited to them. In the Examples, surface tension was measured with a full automatic tensiometer, model PD-W, ex Kyowa Interface Science Co. Ltd., at 25 degrees C. according to the water drop method in which a contact angle with the air is measured. A surface tension of dimethylpolysiloxane having a viscosity of 30 mm^2/s at 25 degrees C. measured according to this method was 18.2 mN/m. In the tables shown below, “D” and “I” each represents a degree of solubility: “D” means “dispersed” and “I” means “insoluble.” A silicone with no mark means that it dissolved to form a transparent solution.
(§2) Some properties and solubility in oil agents were determined with each of the glycerol-modified silicone prepared in Examples 1 to 5. Surface tension of the mixtures of the silicone and the oil agent were measured, too.

[2] = test system: leaf of Citrus Natsudaidai; test: Spreading of one drop of liquid paraffin containing silicone on a leaf (FIGS. 1 & 2); conditions: 15 μl drop of liquid paraffin containing 10 wt % silicone; 5 minutes after placing
Procedure: FIGS. 1 & 2 are photographs each taken 5 minutes after one drop, i.e., 15 μl, of liquid paraffin containing 10 wt % of the silicone of Example 2 and Comparative Example 6, respectively, was placed on a leaf of Citrus Natsudaidai. […] Comparing the figures, the liquid paraffin containing the glycerol-modified silicone in Example 2 has better spreading property than the silicone modified with n-octene.

[3] = Surface tension of silicone/oil agent mixtures, automatic tensiometer, 25 degrees C.; type: physicochemical; conditions: for Surface Tension, glycerol-modified silicone/oil agent = 10/90, Liquid paraffin / Surface Tension, glycerol-modified silicone/oil agent = 10/90, Rapeseed oil / Surface Tension, glycerol-modified silicone/oil agent = 10/90, Soybean oil: 25 C.; for Surface Tension, glycerol-modified silicone/oil agent = 10/90, Liquid paraffin: silicone/liquid paraffin = 10/90, neat liquid paraffin 27.9; for Surface Tension, glycerol-modified silicone/oil agent = 10/90, Rapeseed oil: silicone/rapeseed oil = 10/90, neat rapeseed oil 31; for Surface Tension, glycerol-modified silicone/oil agent = 10/90, Soybean oil: silicone/soybean oil = 10/90, neat soybean oil 31.8; for Surface tension, amount added 1 wt % / Surface tension, amount added 5 wt % / Surface tension, amount added 10 wt % / Surface tension, amount added 15 wt %: Table 5, oil agent not named; for Surface tension, amount added 1 wt %: 1 wt % silicone; for Surface tension, amount added 5 wt %: 5 wt % silicone; for Surface tension, amount added 10 wt %: 10 wt % silicone; for Surface tension, amount added 15 wt %: 15 wt % silicone
Procedure: as §1, §2
Silicones modified with compounds other than glycerol were prepared. Mixtures with the oil agents were prepared and surface tension thereof was measured as in Examples.
Compositions were prepared containing an oil agent and the glycerol-modified silicone in a weight ratio of 90/10 and surface tension thereof was measured.
Silicones without having a glycerol residue and silicones having a structure other than, A-B-A, were prepared and subjected to the measurements as in Examples. Mixtures with the oil agents were prepared each of which surface tension was measured as in Examples.

SMILES: C[Si](C)(CCCOCC(O)CO)O[Si](C)(C)CCCOCC(O)CO (stereo not shown) [Comparative Example 1]
- Miscibility, glycerol-modified silicone/oil agent = 10/90, Liquid paraffin ([1]; silicone/liquid paraffin = 10/90): (I)
- Miscibility, glycerol-modified silicone/oil agent = 10/90, Rapeseed oil ([1]; silicone/rapeseed oil = 10/90): (I)
- Miscibility, glycerol-modified silicone/oil agent = 10/90, Soybean oil ([1]; silicone/soybean oil = 10/90): (I)

SMILES: CCCCCCCC[Si](C)(O[Si](C)(C)C)O[Si](C)(C)C [Comparative Example 6]
- spreading of a drop on a leaf [2]: remained as a small circle
- Surface Tension, glycerol-modified silicone/oil agent = 10/90, Liquid paraffin [3]: 25.5 mN/m
- Surface Tension, glycerol-modified silicone/oil agent = 10/90, Rapeseed oil [3]: 24.5 mN/m
- Surface Tension, glycerol-modified silicone/oil agent = 10/90, Soybean oil [3]: 24.9 mN/m
- Surface tension, amount added 1 wt % [3]: 27.4 mN/m
- Surface tension, amount added 5 wt % [3]: 25.3 mN/m
- Surface tension, amount added 10 wt % [3]: 25.5 mN/m
- Surface tension, amount added 15 wt % [3]: 24.4 mN/m

SMILES: C[Si](C)(C)O[Si](C)(C)CCCOCC(O)CO (stereo not shown) [Example 1]
- Surface Tension, glycerol-modified silicone/oil agent = 10/90, Liquid paraffin [3]: 21.3 mN/m
- Surface Tension, glycerol-modified silicone/oil agent = 10/90, Rapeseed oil [3]: 22.6 mN/m
- Surface Tension, glycerol-modified silicone/oil agent = 10/90, Soybean oil [3]: 21.9 mN/m

SMILES: CCCCCCCCCCCC[Si](C)(O[Si](C)(C)C)O[Si](C)(C)C [compound 7]
- Surface Tension, glycerol-modified silicone/oil agent = 10/90, Liquid paraffin [3]: 26.3 mN/m

SMILES: CCCCCCCC[Si](C)(C)O[Si](C)(C)O[Si](C)(C)C [compound 8]
- Surface Tension, glycerol-modified silicone/oil agent = 10/90, Liquid paraffin [3]: 25 mN/m

SMILES: C[Si](C)(C)O[Si](C)(CCCCCO)O[Si](C)(C)C [compound 10]
- Surface Tension, glycerol-modified silicone/oil agent = 10/90, Liquid paraffin [3]: 25.4 mN/m
- Surface tension, amount added 1 wt % [3]: 26.6 mN/m
- Surface tension, amount added 5 wt % [3]: 25 mN/m
- Surface tension, amount added 10 wt % [3]: 25.4 mN/m
- Surface tension, amount added 15 wt % [3]: 22.7 mN/m

SMILES: CC(CCO)C[Si](C)(O[Si](C)(C)C)O[Si](C)(C)C (stereo not shown) [compound 11]
- Surface Tension, glycerol-modified silicone/oil agent = 10/90, Liquid paraffin [3]: 23.7 mN/m
- Surface Tension, glycerol-modified silicone/oil agent = 10/90, Rapeseed oil [3]: 24.9 mN/m
- Surface Tension, glycerol-modified silicone/oil agent = 10/90, Soybean oil [3]: 24.3 mN/m
- Surface tension, amount added 1 wt % [3]: 27 mN/m
- Surface tension, amount added 5 wt % [3]: 24.4 mN/m
- Surface tension, amount added 10 wt % [3]: 23.7 mN/m
- Surface tension, amount added 15 wt % [3]: 23.7 mN/m

SMILES: CCC(CO)(CO)COCCC[Si](C)(C)O[Si](C)(C)C [compound 14]
- Surface Tension, glycerol-modified silicone/oil agent = 10/90, Liquid paraffin [3]: 23 mN/m
- Surface Tension, glycerol-modified silicone/oil agent = 10/90, Rapeseed oil [3]: 26.9 mN/m
- Surface Tension, glycerol-modified silicone/oil agent = 10/90, Soybean oil [3]: 27.5 mN/m

SMILES: CCC(CO)(CO)COCCC[Si](C)(O[Si](C)(C)C)O[Si](C)(C)C [compound 15]
- Surface Tension, glycerol-modified silicone/oil agent = 10/90, Liquid paraffin [3]: 22.1 mN/m
- Surface Tension, glycerol-modified silicone/oil agent = 10/90, Rapeseed oil [3]: 25.3 mN/m
- Surface Tension, glycerol-modified silicone/oil agent = 10/90, Soybean oil [3]: 26 mN/m
